Values quoted from earlier work in patent US20130252843A1, “METHOD OF MAKING AND USING FLUORESCENT-TAGGED NANOPARTICLES AND MICROARRAYS” (THE STATE OF OREGON ACTING BY AND THROUGH THE STATE BOARD …, priority 2010, published 2013).
Like-named read-outs stand apart in the source and are kept apart here.

How the values were obtained:
[1] = biological target: CVN (Cyanovirin-N mutants); settings: cited from earlier work
[2] = biological target: CVN-M, Cyanovirin-N Mut^DB (CV-N^MutDB) mutant (Nostoc ellipsosporum, UniProt P81180); settings: reported association constants, cited from earlier work
[3] = biological target: CVN-Q, Cyanovirin-N Q^50C (Q50C) mutant (Nostoc ellipsosporum, UniProt P81180, Q50C); settings: cited from earlier work
Con A, Concanavalin A = Con A, Concanavalin A (Canavalia ensiformis, UniProt P02866); settings: reported solution association constants, cited from earlier work
PNA, Peanut Agglutinin = biological target: T1, PNA, Peanut Agglutinin (Arachis hypogaea, UniProt P02872); settings: cited from earlier work
T1 construct: purchased Sigma-Aldrich

[4] = biological target: BS-I, Bandeiraea simplicifolia lectin; settings: cited from earlier work
[5] = biological target: DBA, Dolichos Biflorus Agglutinin; settings: cited from earlier work
[6] = biological target: RCA, Ricinus Communis Agglutinin I; settings: cited from earlier work

Structure (SMILES) | Ka [1] | Ka [2] [M⁻¹] | Ka ([2]; listed as 2α, 2α-Man3) [M⁻¹] | Ka ([3]; Domain A) | Ka ([3]; Domain B) | Ka (Con A, Concanavalin A) [M⁻¹] | Ka (Con A, Concanavalin A; listed as 2α, 2α-Man3) [M⁻¹] | Ka (Con A, Concanavalin A; listed as Man3) | Ka (PNA, Peanut Agglutinin) [M⁻¹] | Ka [4] [M⁻¹] | Ka [5] | Ka [6] [M⁻¹]
OC[C@H]1O[C@H](O[C@@H]2[C@@H](O[C@@H]3C(O)O[C@H](CO)[C@@H](O)[C@@H]3O)O[C@H](CO)[C@@H](O)[C@@H]2O)[C@@H](O)[C@@H](O)[C@@H]1O (stereo partly drawn) [2α,2α-Man3, α-1,2-α-1,2-mannotriose] | 10^5-10^6 M^−1 | 294000 | 294000 | 2.94 × 10^5 (Domain A); M^−1 | 2.33 × 10^4 (Domain B) M^−1 | 379000 | 379000 | 10^5-10^6 M^−1 |  |  |  | 
CC(=O)N[C@H]1C(O)O[C@H](CO)[C@H](O)[C@@H]1O (stereo partly drawn) [GalNAc, N-acetylgalactosamine] |  |  |  |  |  |  |  |  | 2430 | 187000 | ~10^3 M^−1 | 48400
